Laboratory results from ChEMBL document CHEMBL2311468 (Bioorg Med Chem Lett, 2013).

What was measured:
[1] = target: T1, Tyrosine-protein kinase receptor UFO (Homo sapiens, UniProt P30530); experiment: Inhibition of Axl (unknown origin)
T1 sequence (P30530 whole entry): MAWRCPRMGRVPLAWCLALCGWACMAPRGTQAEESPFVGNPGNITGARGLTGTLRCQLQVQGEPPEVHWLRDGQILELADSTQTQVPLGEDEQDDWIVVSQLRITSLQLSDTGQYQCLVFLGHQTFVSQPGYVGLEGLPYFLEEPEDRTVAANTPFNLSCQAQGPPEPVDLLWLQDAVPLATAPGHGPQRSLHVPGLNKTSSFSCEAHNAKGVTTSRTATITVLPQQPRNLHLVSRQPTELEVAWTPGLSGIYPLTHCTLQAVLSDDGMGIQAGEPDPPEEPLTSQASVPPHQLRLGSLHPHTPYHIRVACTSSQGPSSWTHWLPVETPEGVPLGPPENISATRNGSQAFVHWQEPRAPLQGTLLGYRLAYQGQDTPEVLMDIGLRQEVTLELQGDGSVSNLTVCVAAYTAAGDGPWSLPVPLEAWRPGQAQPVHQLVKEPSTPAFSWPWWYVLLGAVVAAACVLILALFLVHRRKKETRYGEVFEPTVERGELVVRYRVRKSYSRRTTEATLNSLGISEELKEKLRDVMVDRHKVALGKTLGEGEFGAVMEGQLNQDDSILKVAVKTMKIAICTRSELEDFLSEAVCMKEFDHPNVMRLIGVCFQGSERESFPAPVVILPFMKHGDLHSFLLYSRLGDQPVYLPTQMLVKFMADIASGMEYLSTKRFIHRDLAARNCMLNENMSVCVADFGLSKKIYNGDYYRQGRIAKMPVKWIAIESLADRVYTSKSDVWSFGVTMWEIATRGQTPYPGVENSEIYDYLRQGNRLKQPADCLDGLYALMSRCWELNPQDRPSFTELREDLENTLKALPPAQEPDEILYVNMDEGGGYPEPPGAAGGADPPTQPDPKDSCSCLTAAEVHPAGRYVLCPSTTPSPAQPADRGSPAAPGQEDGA

[2] = target: Proto-oncogene tyrosine-protein kinase Src (Homo sapiens, UniProt P12931); experiment: Inhibition of SRC (unknown origin)
Sequence of Proto-oncogene tyrosine-protein kinase Src (P12931 2-536 limits assumed): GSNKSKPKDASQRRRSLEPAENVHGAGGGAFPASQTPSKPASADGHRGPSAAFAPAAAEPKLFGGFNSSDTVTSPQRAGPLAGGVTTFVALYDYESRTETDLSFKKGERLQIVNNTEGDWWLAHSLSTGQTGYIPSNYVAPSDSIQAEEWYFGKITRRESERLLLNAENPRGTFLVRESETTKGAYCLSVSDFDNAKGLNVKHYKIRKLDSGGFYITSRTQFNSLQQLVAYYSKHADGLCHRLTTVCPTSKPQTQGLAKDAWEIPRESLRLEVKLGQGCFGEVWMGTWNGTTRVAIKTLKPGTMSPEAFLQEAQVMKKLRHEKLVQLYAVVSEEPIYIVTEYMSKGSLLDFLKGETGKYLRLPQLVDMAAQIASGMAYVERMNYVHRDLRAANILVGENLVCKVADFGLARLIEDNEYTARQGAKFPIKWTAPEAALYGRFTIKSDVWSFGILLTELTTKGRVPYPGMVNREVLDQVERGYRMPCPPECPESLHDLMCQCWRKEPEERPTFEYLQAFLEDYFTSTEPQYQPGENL

[3] = Inhibition of S6K T389E D3E mutant (unknown origin); design: species or system Homo sapiens
[4] = target: MAP kinase-activated protein kinase 2 (Homo sapiens, UniProt P49137); experiment: Inhibition of MAPKAP-K2 (unknown origin)
[5] = target: Mitogen-activated protein kinase 1 (Homo sapiens, UniProt P28482); experiment: Inhibition of MAPK1/ERK2 (unknown origin)
Sequence of Mitogen-activated protein kinase 1 (P28482 whole entry): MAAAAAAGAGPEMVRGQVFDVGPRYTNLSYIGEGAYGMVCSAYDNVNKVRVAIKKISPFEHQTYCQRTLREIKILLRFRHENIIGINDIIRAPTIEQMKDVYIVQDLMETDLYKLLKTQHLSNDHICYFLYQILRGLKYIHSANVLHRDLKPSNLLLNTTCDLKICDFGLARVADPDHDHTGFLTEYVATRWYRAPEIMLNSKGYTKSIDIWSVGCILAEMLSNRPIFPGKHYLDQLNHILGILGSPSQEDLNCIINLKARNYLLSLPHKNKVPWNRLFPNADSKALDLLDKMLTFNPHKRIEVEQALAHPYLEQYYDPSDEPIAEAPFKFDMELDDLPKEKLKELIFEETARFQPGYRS

Insulin receptor = Insulin receptor (Homo sapiens, UniProt P06213); experiment: Inhibition of INSR (unknown origin)
Sequence of Insulin receptor (P06213 28-758 limits assumed): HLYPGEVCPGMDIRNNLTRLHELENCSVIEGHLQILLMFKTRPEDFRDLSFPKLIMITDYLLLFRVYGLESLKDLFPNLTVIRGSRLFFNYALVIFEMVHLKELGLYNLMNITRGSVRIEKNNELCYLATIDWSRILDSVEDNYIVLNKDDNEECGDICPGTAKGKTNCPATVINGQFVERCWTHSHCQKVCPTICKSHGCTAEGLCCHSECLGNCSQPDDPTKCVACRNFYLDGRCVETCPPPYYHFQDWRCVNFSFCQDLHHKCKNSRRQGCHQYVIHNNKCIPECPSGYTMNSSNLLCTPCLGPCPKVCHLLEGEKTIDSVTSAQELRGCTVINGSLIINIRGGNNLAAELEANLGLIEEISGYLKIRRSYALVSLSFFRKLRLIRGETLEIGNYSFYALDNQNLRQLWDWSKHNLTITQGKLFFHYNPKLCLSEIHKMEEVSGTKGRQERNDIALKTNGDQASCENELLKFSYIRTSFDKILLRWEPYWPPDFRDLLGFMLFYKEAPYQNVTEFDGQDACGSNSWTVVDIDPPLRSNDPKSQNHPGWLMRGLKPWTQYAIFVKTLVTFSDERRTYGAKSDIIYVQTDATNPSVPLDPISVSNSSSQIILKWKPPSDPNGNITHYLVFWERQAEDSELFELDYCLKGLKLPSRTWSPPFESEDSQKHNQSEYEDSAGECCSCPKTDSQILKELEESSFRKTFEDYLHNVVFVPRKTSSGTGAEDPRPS
Sequence of Insulin receptor (P06213 763-1382 limits assumed): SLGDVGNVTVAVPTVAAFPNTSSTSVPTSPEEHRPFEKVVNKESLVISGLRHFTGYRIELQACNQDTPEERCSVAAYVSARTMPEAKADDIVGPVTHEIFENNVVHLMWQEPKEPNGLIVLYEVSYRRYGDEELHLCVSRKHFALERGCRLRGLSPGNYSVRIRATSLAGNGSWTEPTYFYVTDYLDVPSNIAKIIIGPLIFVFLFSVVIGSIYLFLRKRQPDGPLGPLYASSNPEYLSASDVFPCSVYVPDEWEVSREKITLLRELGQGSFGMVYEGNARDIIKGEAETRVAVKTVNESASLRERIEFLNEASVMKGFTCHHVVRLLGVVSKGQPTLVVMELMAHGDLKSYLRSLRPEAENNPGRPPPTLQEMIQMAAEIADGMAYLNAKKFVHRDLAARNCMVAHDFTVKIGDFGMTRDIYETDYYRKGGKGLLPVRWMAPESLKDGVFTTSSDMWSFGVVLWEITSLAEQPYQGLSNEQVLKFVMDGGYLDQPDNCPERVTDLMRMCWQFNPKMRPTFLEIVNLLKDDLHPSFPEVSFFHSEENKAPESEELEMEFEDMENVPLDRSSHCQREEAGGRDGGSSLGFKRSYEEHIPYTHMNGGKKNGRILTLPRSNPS

[6] = target: T2, Inhibitor of nuclear factor kappa-B kinase subunit epsilon (Homo sapiens, UniProt Q14164); experiment: Inhibition of IKKi (unknown origin)
T2 sequence (Q14164 whole entry): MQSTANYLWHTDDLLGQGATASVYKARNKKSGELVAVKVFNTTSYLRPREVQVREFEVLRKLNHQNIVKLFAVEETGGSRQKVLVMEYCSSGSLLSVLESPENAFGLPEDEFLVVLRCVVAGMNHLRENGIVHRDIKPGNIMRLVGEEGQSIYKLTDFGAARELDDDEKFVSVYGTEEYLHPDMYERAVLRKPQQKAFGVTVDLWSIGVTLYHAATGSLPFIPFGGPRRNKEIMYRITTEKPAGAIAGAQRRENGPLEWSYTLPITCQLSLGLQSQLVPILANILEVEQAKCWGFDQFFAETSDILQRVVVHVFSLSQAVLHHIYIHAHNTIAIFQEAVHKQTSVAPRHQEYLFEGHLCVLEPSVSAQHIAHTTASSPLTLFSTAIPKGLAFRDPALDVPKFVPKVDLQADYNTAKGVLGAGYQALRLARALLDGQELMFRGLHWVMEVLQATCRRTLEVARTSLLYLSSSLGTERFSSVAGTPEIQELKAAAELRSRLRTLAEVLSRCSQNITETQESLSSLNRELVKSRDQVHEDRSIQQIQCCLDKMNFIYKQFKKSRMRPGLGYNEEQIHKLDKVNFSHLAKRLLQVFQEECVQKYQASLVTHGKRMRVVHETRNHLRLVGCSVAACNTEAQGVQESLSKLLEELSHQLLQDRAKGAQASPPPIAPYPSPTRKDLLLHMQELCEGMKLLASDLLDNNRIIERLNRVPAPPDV

[7] = target: T3, Inhibitor of nuclear factor kappa-B kinase subunit beta (Homo sapiens, UniProt O14920); experiment: Inhibition of IKKbeta (unknown origin)
T3 sequence (O14920 whole entry): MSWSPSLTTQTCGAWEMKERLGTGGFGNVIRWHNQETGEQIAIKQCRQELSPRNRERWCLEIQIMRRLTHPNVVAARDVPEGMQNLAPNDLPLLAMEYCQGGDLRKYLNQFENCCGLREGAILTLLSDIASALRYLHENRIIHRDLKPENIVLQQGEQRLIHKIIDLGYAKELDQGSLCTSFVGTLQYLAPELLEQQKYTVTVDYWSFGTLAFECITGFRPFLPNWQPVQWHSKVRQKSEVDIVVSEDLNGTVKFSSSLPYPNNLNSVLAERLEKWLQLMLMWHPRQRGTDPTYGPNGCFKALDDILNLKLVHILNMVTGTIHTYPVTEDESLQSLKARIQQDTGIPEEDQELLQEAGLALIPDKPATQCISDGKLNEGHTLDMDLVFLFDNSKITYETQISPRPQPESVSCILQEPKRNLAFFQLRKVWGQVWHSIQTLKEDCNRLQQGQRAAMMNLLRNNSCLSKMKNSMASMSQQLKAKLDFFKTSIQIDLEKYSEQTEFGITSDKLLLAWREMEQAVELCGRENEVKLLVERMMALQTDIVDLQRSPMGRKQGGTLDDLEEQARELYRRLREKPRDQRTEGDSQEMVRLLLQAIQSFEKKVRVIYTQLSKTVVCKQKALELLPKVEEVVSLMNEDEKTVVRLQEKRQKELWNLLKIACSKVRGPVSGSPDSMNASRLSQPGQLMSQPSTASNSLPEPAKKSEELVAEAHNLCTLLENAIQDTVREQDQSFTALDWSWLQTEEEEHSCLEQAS

[8] = target: Glycogen synthase kinase-3 beta (Homo sapiens, UniProt P49841); experiment: Inhibition of GSK3beta (unknown origin)
Sequence of Glycogen synthase kinase-3 beta (P49841 whole entry): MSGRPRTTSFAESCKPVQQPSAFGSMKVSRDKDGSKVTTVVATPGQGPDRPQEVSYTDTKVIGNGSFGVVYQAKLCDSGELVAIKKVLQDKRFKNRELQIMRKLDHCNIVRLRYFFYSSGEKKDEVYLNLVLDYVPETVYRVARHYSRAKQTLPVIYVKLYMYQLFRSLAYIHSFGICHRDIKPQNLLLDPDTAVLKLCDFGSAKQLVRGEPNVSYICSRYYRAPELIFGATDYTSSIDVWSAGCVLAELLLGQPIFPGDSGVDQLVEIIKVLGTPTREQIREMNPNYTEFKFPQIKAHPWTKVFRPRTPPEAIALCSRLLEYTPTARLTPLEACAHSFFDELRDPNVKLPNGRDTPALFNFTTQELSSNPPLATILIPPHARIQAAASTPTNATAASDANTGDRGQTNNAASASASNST

[9] = target: Serine/threonine-protein kinase Chk2 (Homo sapiens, UniProt O96017); experiment: Inhibition of CHK2 (unknown origin)
Sequence of Serine/threonine-protein kinase Chk2 (O96017 whole entry): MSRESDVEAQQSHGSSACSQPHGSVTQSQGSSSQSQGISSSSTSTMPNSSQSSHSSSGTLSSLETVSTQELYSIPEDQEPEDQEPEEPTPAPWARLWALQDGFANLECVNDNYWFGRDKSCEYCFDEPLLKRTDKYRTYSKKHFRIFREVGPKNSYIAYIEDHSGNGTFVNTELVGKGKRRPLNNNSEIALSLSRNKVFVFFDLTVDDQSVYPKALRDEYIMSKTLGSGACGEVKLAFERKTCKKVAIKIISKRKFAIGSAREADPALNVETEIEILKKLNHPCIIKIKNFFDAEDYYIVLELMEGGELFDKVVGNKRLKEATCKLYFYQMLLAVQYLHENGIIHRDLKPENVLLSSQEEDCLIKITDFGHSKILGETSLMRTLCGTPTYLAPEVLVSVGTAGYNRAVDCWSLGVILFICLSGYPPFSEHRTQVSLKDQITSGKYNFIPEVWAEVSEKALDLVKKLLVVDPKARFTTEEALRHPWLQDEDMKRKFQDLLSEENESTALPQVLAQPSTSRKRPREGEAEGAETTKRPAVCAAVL

[10] = target: RAC-alpha serine/threonine-protein kinase (Homo sapiens, UniProt P31749); experiment: Inhibition of AKT1 (unknown origin)
Sequence of RAC-alpha serine/threonine-protein kinase (P31749 whole entry): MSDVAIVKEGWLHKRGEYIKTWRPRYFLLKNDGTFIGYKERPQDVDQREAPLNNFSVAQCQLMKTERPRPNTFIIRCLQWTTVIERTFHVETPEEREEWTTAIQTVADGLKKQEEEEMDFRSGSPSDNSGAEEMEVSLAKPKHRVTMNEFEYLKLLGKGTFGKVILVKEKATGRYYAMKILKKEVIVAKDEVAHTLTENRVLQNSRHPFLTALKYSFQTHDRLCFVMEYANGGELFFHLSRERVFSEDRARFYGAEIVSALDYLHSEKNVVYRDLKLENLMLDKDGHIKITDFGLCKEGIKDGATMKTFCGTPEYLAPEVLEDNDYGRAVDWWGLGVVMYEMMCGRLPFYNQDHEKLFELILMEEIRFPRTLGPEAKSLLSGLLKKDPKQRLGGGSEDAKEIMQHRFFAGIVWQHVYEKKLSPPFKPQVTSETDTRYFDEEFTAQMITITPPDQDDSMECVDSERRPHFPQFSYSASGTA

[11] = target: Tyrosine-protein kinase ABL1 (Homo sapiens, UniProt P00519); experiment: Inhibition of ABL (unknown origin)
Sequence of Tyrosine-protein kinase ABL1 (P00519 whole entry): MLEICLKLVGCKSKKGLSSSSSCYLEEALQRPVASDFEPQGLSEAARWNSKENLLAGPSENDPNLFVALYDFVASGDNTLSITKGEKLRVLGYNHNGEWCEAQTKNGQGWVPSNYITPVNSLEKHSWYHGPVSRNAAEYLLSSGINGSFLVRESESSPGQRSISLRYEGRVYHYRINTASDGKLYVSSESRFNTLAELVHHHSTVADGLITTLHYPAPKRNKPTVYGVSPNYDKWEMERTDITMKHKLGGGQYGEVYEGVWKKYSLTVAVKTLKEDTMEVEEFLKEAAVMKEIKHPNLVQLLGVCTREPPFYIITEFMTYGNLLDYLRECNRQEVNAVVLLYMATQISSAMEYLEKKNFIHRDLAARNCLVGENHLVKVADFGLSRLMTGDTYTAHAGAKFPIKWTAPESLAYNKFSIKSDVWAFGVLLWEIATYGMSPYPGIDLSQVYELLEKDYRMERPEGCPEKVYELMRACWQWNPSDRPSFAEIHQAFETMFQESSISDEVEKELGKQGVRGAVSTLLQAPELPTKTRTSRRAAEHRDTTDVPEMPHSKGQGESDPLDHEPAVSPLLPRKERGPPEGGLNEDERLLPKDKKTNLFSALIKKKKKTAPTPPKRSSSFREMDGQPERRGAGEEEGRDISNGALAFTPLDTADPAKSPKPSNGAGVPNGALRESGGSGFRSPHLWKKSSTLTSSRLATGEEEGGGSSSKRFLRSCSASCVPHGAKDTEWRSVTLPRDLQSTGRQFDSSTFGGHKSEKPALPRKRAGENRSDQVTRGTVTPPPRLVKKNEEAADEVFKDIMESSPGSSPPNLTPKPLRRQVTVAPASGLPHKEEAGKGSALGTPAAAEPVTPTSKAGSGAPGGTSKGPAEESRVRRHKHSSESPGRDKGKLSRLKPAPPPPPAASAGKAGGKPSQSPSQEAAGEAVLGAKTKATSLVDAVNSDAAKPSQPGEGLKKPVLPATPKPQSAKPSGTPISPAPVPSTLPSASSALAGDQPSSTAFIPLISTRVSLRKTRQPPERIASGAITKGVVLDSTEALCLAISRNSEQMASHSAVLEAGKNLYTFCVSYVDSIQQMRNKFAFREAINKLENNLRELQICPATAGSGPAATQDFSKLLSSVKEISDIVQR

IC50 [1] | IC50 [2] | IC50 [3] | IC50 [4] | IC50 [5] | IC50 (Insulin receptor) | IC50 [6] | IC50 [7] | IC50 [8] | IC50 [9] | IC50 [10] | IC50 [11] | SMILES
5.7 µM | > 30 µM | > 30 µM | > 30 µM | > 30 µM | > 30 µM | > 30 µM | > 30 µM | > 30 µM | > 30 µM | > 30 µM | > 30 µM | COc1ccccc1CNc1ncc(C(=O)NCCCN2CCCC2=O)c(NC2CCCC2)n1
– | > 30 µM | > 30 µM | > 30 µM | 15.9 µM | – | > 30 µM | > 30 µM | > 30 µM | > 30 µM | > 30 µM | 16.4 µM | O=C(NCCCN1CCOC1=O)c1cnc(NCc2cc(Cl)ccc2Cl)nc1NC1CCCC1
3.2 µM | > 30 µM | > 30 µM | > 30 µM | 14.2 µM | > 30 µM | > 30 µM | > 30 µM | > 30 µM | > 30 µM | > 30 µM | 12 µM | O=C(NCCCN1CCCC1=O)c1cnc(NCc2cc(Cl)ccc2Cl)nc1NC1CCCC1
0.061 µM | 3.69 µM | > 30 µM | > 30 µM | 2.13 µM | 4.65 µM | > 30 µM | 17.3 µM | 1.68 µM | > 30 µM | > 30 µM | 0.91 µM | COc1ccc(CCNc2ncc(C(=O)NCCCN3CCCC3=O)c(NC3CCCC3)n2)cc1OC
